Key:
[1] = target: T1, Multidrug resistance-associated protein 1 (Homo sapiens, UniProt P33527); test: TP_TRANSPORTER: cell accumulation in MRP1-expressing MCP cells; type: functional, Mesophyll cell protoplasts; conditions: arabidopsis thaliana
[2] = target: T1, Multidrug resistance-associated protein 1; test: TP_TRANSPORTER: inhibition of Sb(III) accumulation in the presence of glibenclamid at a concentration of 10uM in MRP1-expressing MCP cells; type: functional, subcellular, Protoplasts; conditions: arabidopsis thaliana

T1 sequence (P33527 whole entry): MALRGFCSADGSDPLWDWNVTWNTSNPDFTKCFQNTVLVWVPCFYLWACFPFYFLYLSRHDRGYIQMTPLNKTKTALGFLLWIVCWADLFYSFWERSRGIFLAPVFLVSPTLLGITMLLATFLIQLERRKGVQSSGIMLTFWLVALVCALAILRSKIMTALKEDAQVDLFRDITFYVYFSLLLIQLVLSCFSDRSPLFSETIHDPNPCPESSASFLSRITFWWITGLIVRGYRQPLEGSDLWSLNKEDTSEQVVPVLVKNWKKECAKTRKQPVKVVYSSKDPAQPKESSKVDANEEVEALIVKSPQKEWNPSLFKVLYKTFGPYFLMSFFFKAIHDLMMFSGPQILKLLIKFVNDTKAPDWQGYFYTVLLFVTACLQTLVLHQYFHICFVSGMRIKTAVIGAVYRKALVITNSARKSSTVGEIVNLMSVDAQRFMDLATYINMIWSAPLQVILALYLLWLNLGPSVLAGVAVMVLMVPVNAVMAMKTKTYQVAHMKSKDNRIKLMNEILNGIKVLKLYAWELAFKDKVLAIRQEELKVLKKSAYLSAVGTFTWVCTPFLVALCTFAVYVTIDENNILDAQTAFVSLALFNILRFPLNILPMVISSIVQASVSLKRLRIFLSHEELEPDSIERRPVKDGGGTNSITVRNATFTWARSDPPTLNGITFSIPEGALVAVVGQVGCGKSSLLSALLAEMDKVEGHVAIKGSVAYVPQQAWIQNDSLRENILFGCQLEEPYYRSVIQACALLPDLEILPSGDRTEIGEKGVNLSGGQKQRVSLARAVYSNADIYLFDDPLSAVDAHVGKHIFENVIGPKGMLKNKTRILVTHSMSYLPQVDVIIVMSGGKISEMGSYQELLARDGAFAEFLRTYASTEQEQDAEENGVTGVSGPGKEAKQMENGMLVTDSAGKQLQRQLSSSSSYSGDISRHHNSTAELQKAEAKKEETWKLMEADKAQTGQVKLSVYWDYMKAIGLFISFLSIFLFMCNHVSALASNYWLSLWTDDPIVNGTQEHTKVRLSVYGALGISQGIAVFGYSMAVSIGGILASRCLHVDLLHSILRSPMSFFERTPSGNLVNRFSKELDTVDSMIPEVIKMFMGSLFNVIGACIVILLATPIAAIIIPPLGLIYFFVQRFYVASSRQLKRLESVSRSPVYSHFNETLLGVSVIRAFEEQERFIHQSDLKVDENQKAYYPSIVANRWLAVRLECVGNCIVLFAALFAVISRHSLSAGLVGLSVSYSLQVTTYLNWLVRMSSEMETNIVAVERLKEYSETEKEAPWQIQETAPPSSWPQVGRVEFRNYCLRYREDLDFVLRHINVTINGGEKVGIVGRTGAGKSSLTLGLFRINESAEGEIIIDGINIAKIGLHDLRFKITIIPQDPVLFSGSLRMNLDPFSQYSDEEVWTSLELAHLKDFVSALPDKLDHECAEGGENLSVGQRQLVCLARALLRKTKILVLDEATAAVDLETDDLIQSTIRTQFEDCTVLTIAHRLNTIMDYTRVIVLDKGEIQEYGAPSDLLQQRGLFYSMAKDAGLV

Row | Activity [1] | Activity [2] | Compound
1 | substrate [+] | – | ANTIMONY (III) ION
2 | – | inhibitor [+] | COc1ccc(Cl)cc1C(=O)NCCc1ccc(S(=O)(=O)NC(=O)NC2CCCCC2)cc1 [GLYBURIDE]
